In patent EP4678638A1, “NEW E3 UBIQUITIN LIGASE LIGAND, PROTEIN DEGRADATION AGENT AND USE THEREOF” (priority 2023, dated 2024) one finds IC50 data, which are given here for 14 molecules.

One assay has as its system SR. Description: CCK-8 proliferation, SR. The class given is cell-based, Human. Conditions: Homo sapiens, SR cells, read-out: Inhibitory activity (IC50, nM) on tumor cell proliferation, SR. As for the experimental part:
(§1) The tumor cells used herein were cultured in a cell culture medium listed in table A1 at 37°C in an incubator with 5% CO2. Prior to experimentation, all cell lines used were correctly identified by STR profiling, and tested negative for mycoplasma contamination using a mycoplasma detection kit through routine screenings. Table A1. Tumor cells and cell culture medium used in the present disclosure
(§2) IC50 values of the compounds of the present disclosure (including the compounds in Table 1, and compounds of examples) were measured using the Meilun Cell Counting Kit-8 kit from Dalian Meilun Biotech Co., Ltd. Assay details are as follows: tumor cells were seeded in a 96-well plate at a density listed in Table A2. After 24h, 100 µL of the inoculated cells were treated with 0.5µL of the compounds of the present disclosure (including the compounds in Tables 1 and 2, and compounds of examples) at 10 different successively decreasing concentrations (starting at the highest concentration of 10µM; 5-fold serial dilutions). After the cells were treated with the compounds of the present disclosure for a period of time, the cell viability detection reagent was added to the culture medium for cell viability assessment according to the instructions provided with the CCK-8 kit. […] The growth inhibition of the compounds of the present disclosure on cells was plotted by Prism Graphpad software, and the IC50 values of the compounds of the present disclosure were calculated therefrom. […] Seeding protocol and treatment time for tumor cells

The test system of a further assay is MM.1S. As to the kind of experiment: CCK-8 proliferation, MM.1S. Conditions: Homo sapiens, MM1.S, MM.1S cells, read-out: Inhibitory activity (IC50, nM) on tumor cell proliferation, MM.1S. The class given is cell-based. As for the experimental part: as §1, §2
For another assay, the system named is H2228. Description: CCK-8 proliferation, NCI-H2228 (H2228). It is filed as cell-based. The conditions noted are these: Homo sapiens, NCI-H2228; Table B6, compounds designed based on the ALK inhibitors; H2228 cells; read-out: Inhibitory activity (IC50, nM) on tumor cell proliferation, H2228. As for the experimental part:
as §1, §2

The next assay deals with H1975. As to the kind of experiment: CCK-8 proliferation, NCI-H1975 (H1975). The class given is cell-based, Human. Conditions: Homo sapiens, NCI-H1975; Table B6, compounds designed based on the ALK inhibitors; H1975 cells; read-out: Inhibitory activity (IC50, nM) on tumor cell proliferation, H1975. Summed up: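 Cells seeded, then after 24 h treated with 10 concentrations (top 10 µM, 5-fold serial dilution) for a line-specific time at 37°C, 5% CO2. Viability read by CCK-8; IC50 fitted from growth-inhibition curves.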

The next assay deals with MCF7. As to the kind of experiment: CCK-8 proliferation, MCF7 (MCF-7). Conditions: Homo sapiens, MCF7; Table B6, compounds designed based on the ALK inhibitors; MCF-7 cells; read-out: Inhibitory activity (IC50, nM) on tumor cell proliferation, MCF-7. The class given is cell-based. As for the experimental part:
as §1, §2

The mark [1] stands for this setting: Table B10, compounds designed based on the IRAK4 inhibitors.
The mark [2] stands for this setting: Table B6, compounds designed based on the ALK inhibitors.

Like-named read-outs stand apart in the source and are kept apart here.

`O=C1CCC(c2ccc(CN3CCN(Cc4ccc5c(c4)nc(NC(=O)c4cccc(C(F)(F)F)c4)n5[C@H]4CC[C@@H](CO)CC4)CC3)cc2)C(=O)N1` (some centres unmarked) [GT-04978, N-(5-((4-(4-(2,6-dioxopiperidin-3-yl)benzyl)piperazin-1-yl)methyl)-1-((1s,4s)-4-(hydroxymethyl)cyclohexyl) -1H-benzo[d]imidazol-2-yl)-3-(trifluoromethyl)benzamide]: the IC50 with SR (setting [1]) lay within 100 to 500 nM; with MM.1S (setting [1]), 500 to 1000 nM.
As to `O=C1CCN(c2ccc(CN3CCC(n4cc(NC(=O)c5cnn6ccc(N7C[C@H]8C[C@@H]7CO8)nc56)c(C(F)F)n4)CC3)nc2)C(=O)N1` [GT-05053, 5-((1R,4R)-2-oxa-5-azabicyclo[2.2.1]heptan-5-yl)-N-(3-(difluoromethyl)-1-(1-((5-(2,4-dioxotetrahydropyrimidin-1(2H)-yl)pyridin-2-yl)methyl)piperidin-4-yl)-1H-pyrazol-4-yl)pyrazolo[1,5-a]pyrimidine-3-carboxamide], in the assay with MM.1S (setting [1]), the IC50 was 500 to 1000 nM.
For the molecule `CCc1cc2c(cc1N1CCC(N3CCN(Cc4ccc(N5CCC(=O)NC5=O)cn4)CC3)CC1)C(C)(C)c1[nH]c3cc(C#N)ccc3c1C2=O` [GT-07311, 8-(4-(4-((5-(2,4-dioxotetrahydropyrimidin-1(2H)-yl)pyridin-2-yl)methyl)piperazin-1-yl)piperidin-1-yl)-9-ethyl-6,6-dimethyl-11-oxo-6,11-dihydro-5H-benzo[b]carbazole-3-carbonitrile], the IC50 in the assay with H2228 is 50 to 100 nM; with H1975, 500 to 1000 nM; in the assay on MCF7 it was 500 to 1000 nM; in the assay with SR (setting [2]), 1 to 10 nM; in the assay on MM.1S (setting [2]), 500 to 1000 nM.
On to `Cc1cc(Nc2ncc(Cl)c(Nc3ccccc3S(=O)(=O)C(C)C)n2)c(OC(C)C)cc1C1CCN(Cc2cncc(N3CCC(=O)NC3=O)c2)CC1` [GT-07597, 1-(5-((4-(4-((5-chloro-4-((2-(isopropylsulfonyl)phenyl)amino)pyrimidin-2-yl)amino)-5-isopropoxy-2-methylphenyl)piperidin-1-yl)methyl)pyridin-3-yl)dihydropyrimidine-2,4(1H,3H)-dione], for which the IC50 in the assay with H2228 lay within 50 to 100 nM; with MCF7 it was 500 to 1000 nM; in the assay on SR (setting [2]) it was 10 to 50 nM; in the assay with MM.1S (setting [2]), 500 to 1000 nM.
For `Cc1cc(Nc2ncc(Cl)c(Nc3ccccc3S(=O)(=O)C(C)C)n2)c(OC(C)C)cc1C1CCN(Cc2ccnc(C3CCC(=O)NC3=O)c2)CC1` (centres unmarked) [GT-07599, 3-(4-((4-(4-((5-chloro-4-((2-(isopropylsulfonyl)phenyl)amino)pyrimidin-2-yl)amino)-5-isopropoxy-2-methylphenyl)piperidin-1-yl)methyl)pyridin-2-yl)piperidine-2,6-dione], the IC50 was in the range of 100 to 500 nM in the assay with H2228, 100 to 500 nM with MCF7, 10 to 50 nM in the assay with SR (setting [2]) and 500 to 1000 nM with MM.1S (setting [2]).
`Cc1cc(Nc2ncc(Cl)c(Nc3ccccc3S(=O)(=O)C(C)C)n2)c(OC(C)C)cc1C1CCN(Cc2cncc(C3CCC(=O)NC3=O)c2)CC1` (centres unmarked) [GT-07601, 3-(5-((4-(4-((5-chloro-4-((2-(isopropylsulfonyl)phenyl)amino)pyrimidin-2-yl)amino)-5-isopropoxy-2-methylphenyl)piperidin-1-yl)methyl)pyridin-3-yl)piperidine-2,6-dione]: the IC50 with H2228 was 10 to 50 nM; in the assay with MCF7, 100 to 500 nM; in the assay with SR (setting [2]), 10 to 50 nM; with MM.1S (setting [2]) it was 500 to 1000 nM.
For the molecule `COc1cc(N2CCC(N3CCN(Cc4ccc(N5CCC(=O)NC5=O)cc4)CC3)CC2)ccc1Nc1ncc(Cl)c(Nc2ccccc2P(C)(C)=O)n1` [GT-07603, 1-(4-((4-(1-(4-((5-chloro-4-((2-(dimethylphosphoryl)phenyl)amino)pyrimidin-2-yl)amino)-3-methoxyphenyl)piperidin-4-yl)piperazin-1-yl)methyl)phenyl)dihydropyr imidine-2,4(1H,3H)-dione], the IC50 fell in the range of 10 to 50 nM in the assay on H2228; 100 to 500 nM in the assay with H1975; 100 to 500 nM in the assay with MCF7; 10 to 50 nM in the assay on SR (setting [2]); 500 to 1000 nM in the assay on MM.1S (setting [2]).
`COc1cc(N2CCC(N(C)Cc3cc(N4CCC(=O)NC4=O)ncc3F)CC2)ccc1Nc1ncc(Cl)c(Nc2ccccc2P(C)(C)=O)n1` [GT-07693, 1-(4-(((1-(4-((5-chloro-4-((2-(dimethylphosphoryl)phenyl)amino)pyrimidin-2-yl)amino)-3-methoxyphenyl)piperidin-4-yl)(methyl)amino)methyl)-5-fluoropyridin-2-yl)dihydropyrimidine-2,4(1H,3H)-dione]: the IC50 was in the range of 100 to 500 nM with H2228, 100 to 500 nM with H1975, 100 to 500 nM in the assay with MCF7 and 10 to 50 nM with SR (setting [2]).
Take `CCc1cc2c(cc1N1CCC(N3CCN(Cc4ccnc(N5CCC(=O)NC5=O)c4)CC3)CC1)C(C)(C)c1[nH]c3cc(C#N)ccc3c1C2=O` [GT-07701, 8-(4-(4-((2-(2,4-dioxotetrahydropyrimidin-1(2H)-yl)pyridin-4-yl)methyl)piperazin-1-yl)piperidin-1-yl)-9-ethyl-6,6-dimethyl-11-oxo-6,11-dihydro-5H-benzo[b]carbazole-3-carbonitrile]: the IC50 in the assay on H2228 was in the range of 50 to 100 nM; in the assay with MCF7, 500 to 1000 nM; with SR (setting [2]), 1 to 10 nM.
Turning to `CCc1cc2c(cc1N1CCC(N3CCN(Cc4ccc(C5CCC(=O)NC5=O)cn4)CC3)CC1)C(C)(C)c1[nH]c3cc(C#N)ccc3c1C2=O` (centres unmarked) [GT-07705, 8-(4-(4-((5-(2,6-dioxopiperidin-3-yl)pyridin-2-yl)methyl)piperazin-1-yl)piperidin-1-yl)-9-ethyl-6,6-dimethyl-11-oxo-6,11-dihydro-5H-benzo[b]carbazole-3-carbonitrile], the IC50 in the assay with H2228 was 50 to 100 nM; in the assay with H1975, 500 to 1000 nM; with MCF7, 100 to 500 nM; with SR (setting [2]), 1 to 10 nM.
Turning to `CCc1cc2c(cc1N1CCC(N3CCN(Cc4cncc(C5CCC(=O)NC5=O)c4)CC3)CC1)C(C)(C)c1[nH]c3cc(C#N)ccc3c1C2=O` (centres unmarked) [GT-07706, 8-(4-(4-((5-(2,6-dioxopiperidin-3-yl)pyridin-3-yl)methyl)piperazin-1-yl)piperidin-1-yl)-9-ethyl-6,6-dimethyl-11-oxo-6,11-dihydro-5H-benzo[b]carbazole-3-carbonitrile], the IC50 lay within 50 to 100 nM with H2228; 500 to 1000 nM with H1975; 500 to 1000 nM with MCF7; 1 to 10 nM with SR (setting [2]); 500 to 1000 nM with MM.1S (setting [2]).
Regarding `COc1cc(N2CCN(Cc3cc(N4CCC(=O)NC4=O)ncc3F)CC2)ccc1Nc1ncc(Cl)c(Nc2ccccc2P(C)(C)=O)n1` [GT-07707, 1-(4-((4-(4-((5-chloro-4-((2-(dimethylphosphoryl)phenyl)amino)pyrimidin-2-yl)amino)-3-methoxyphenyl)piperazin-1-yl)methyl)-5-fluoropyridin-2-yl)dihydropyrimidine-2,4(1H,3H)-dione], the IC50 in the assay on H2228 lay within 100 to 500 nM; with H1975 it was 500 to 1000 nM; in the assay on MCF7 it was 500 to 1000 nM; with SR (setting [2]) it was 10 to 50 nM.
On to `COc1cc(N2CCN(Cc3ccnc(N4CCC(=O)NC4=O)c3)CC2)ccc1Nc1ncc(Cl)c(Nc2ccccc2P(C)(C)=O)n1` [GT-07708, 1-(4-((4-(4-((5-chloro-4-((2-(dimethylphosphoryl)phenyl)amino)pyrimidin-2-yl)amino)-3-methoxyphenyl)piperazin-1-yl)methyl)pyridin-2-yl)dihydropyrimidine-2,4(1H,3H)-dione], for which the IC50 fell in the range of 100 to 500 nM with H2228, 100 to 500 nM in the assay on H1975, 500 to 1000 nM in the assay with MCF7 and 10 to 50 nM in the assay on SR (setting [2]).
In the case of `COc1cc(N2CCN(Cc3cc(C4CCC(=O)NC4=O)cnc3F)CC2)ccc1Nc1ncc(Cl)c(Nc2ccccc2P(C)(C)=O)n1` (centres unmarked) [GT-07710, 3-(5-((4-(4-((5-chloro-4-((2-(dimethylphosphoryl)phenyl)amino)pyrimidin-2-yl)amino)-3-methoxyphenyl)piperazin-1-yl)methyl)-6-fluoropyridin-3-yl)piperidine-2,6-dione], the IC50 in the assay with H2228 lay in the range of 500 to 1000 nM; in the assay with H1975 it was 500 to 1000 nM; in the assay with MCF7, 100 to 500 nM; in the assay on SR (setting [2]), 10 to 50 nM.
